Data as given in patent US20230065953A1, “NOVEL HETEROARYL-TRIAZOLE COMPOUNDS AS PESTICIDES” (Bayer Aktiengesellschaft, priority 2019, published 2023).

Columns and labels:
Format in all cases: in vivo
[1] = test system: larvae of the banded cucumber beetle (Diabrotica balteata); assay: Diabrotica balteata spray test; details: 168 h, 100 g/ha (=32 μg/well), wheat seeds, after 7 days, read-out: efficacy (seedling growth)
Experimental: Diabrotica Balteata—Spray Test
• Solvent: 78.0 parts by weight of acetone • 1.5 parts by weight of dimethylformamide • Emulsifier: alkylarylpolyglycol ether
Further test concentrations are prepared by dilution with emulsifier containing water.
Soaked wheat seeds (Triticum aestivum) are placed in a multiple well plate filled with agar and some water and are incubated for 1 day to germinate (5 seeds per well). The germinated wheat seeds are sprayed with a test solution containing the desired concentration of the active ingredient. Afterwards each unit is infected with 10-20 larvae of the banded cucumber beetle (Diabrotica balteata).
After 7 days efficacy in % is determined.

[2] = test system: green peach aphid (Myzus persicae); assay: Myzus persicae spray test; details: foliar, 120 h, Chinese cabbage leaf disks, after 5 days
Experimental: Myzus persicae—Spray Test • Solvent: 78.0 parts by weight acetone • 1.5 parts by weight dimethylformamide • Emulsifier: alkylarylpolyglycol ether
(§1) To produce a suitable preparation of active compound, 1 part by weight of active compound is mixed with the stated amount of solvents and is diluted with water, containing an emulsifier concentration of 1000 ppm, to the desired concentration. Further test concentrations are prepared by dilution with emulsifier containing water.
Chinese cabbage (Brassica pekinensis) leaf disks infected with all instars of the green peach aphid (Myzus persicae), are sprayed with a preparation of the active ingredient of the desired concentration.
After 5 days mortality in % is determined. 100% means all aphids have been killed and 0% means none of the aphids have been killed.

[3] = test system: fall armyworm larvae (Spodoptera frugiperda); assay: Spodoptera frugiperda spray test (maize leaf sections); details: 168 h
Experimental: Spodoptera frugiperda—Spray Test • Solvent: 78.0 parts by weight acetone • 1.5 parts by weight dimethylformamide • Emulsifier: alkylarylpolyglycol ether
as §1
Maize (Zea mays) leaf sections are sprayed with a preparation of the active ingredient of the desired concentration. Once dry, the leaf sections are infested with fall armyworm larvae (Spodoptera frugiperda).
After 7 days mortality in % is determined. 100% means all caterpillars have been killed and 0% means none of the caterpillars have been killed.

[4] = test system: larvae of the southern green stink bug (Nezara viridula); assay: Nezara viridula spray test; details: in Hordeum vulgare, 96 h
Experimental: Nezara viridula—Spray Test • Solvent: 78.0 parts by weight of acetone • 1.5 parts by weight of dimethylformamide • Emulsifier: alkylarylpolyglycol ether
as §1, with “solvent,” for “solvents”, “and the concentrate” for “and”
Barley plants (Hordeum vulgare) are sprayed with a test solution containing the desired concentration of the active ingredient and are infested with larvae of the southern green stink bug (Nezara viridula).
After 4 days mortality in % is determined. 100% means all the stink bugs have been killed; 0% means none of the stink bugs have been killed.

[5] = test system: Rhipicephalus microplus larvae (strain Parkhurst, resistant against synthetic pyrethroids); assay: Rhipicephalus (Boophilus) microplus in-vitro contact test, larval cattle tick; details: 5 μg/cm^2 (=500 g/ha), after 48 hours, read-out: efficacy (larvae dead or moribund)
Experimental: Rhipicephalus (Boophilus) Microplus—In-Vitro Contact Tests Larval Cattle Tick (Strain Parkhurst, Resistant Against Synthetic Pyrethroids)
9 mg compound is solved in 1 mL acetone and diluted with acetone to the desired concentration. 250 μL of the test solution is filled in 25 mL glass test tubes and homogeneously distributed on the inner walls by rotation and tilting on a shaking device (2 h at 30 rpm). With a compound concentration of 900 ppm, an inner surface of 44.7 cm^2 and a homogeneous distribution, a dose of 5 μg/cm^2 is achieved.
After the solvent has evaporated, each test tube is filled with 20-50 cattle tick larvae (Rhipicephalus microplus), closed with a perforated lid and incubated in a horizontal position at 85% relative humidity and 27° C. in an incubator. After 48 hours efficacy is determined. The larvae are patted on the ground of the tubes and negative geotactic behavior is recorded.
An efficacy of 100% means all larvae are dead or moribund; 0% means no larvae are dead or moribund.

Structure (SMILES) | pest or weed control at 32 µg/disc, 100 g/ha [1] [%] | mortality at 100 g/ha [2] [%] | mortality at 100 g/ha [3] [%] | mortality at 500 g/ha [4] [%] | mortality at 100 g/ha [4] [%] | pest or weed control at 5 µg/cm2 [5] [%]
C[C@H](NC(=O)c1cc(Cl)cc(S(=O)(=O)C2CC2)c1)c1ncnn1-c1ncc(C#N)s1 [I-46] | 100 | 90 | 100 | 100 | – | –
C[C@H](NC(=O)c1cc(OC(F)F)cc(S(=O)(=O)C2CC2)c1)c1ncnn1-c1ncc(C#N)s1 [I-50] | – | 90 | 100 | 100 | 90 | –
C[C@H](NC(=O)c1cc(C(F)F)cc(S(=O)(=O)C2CC2)c1)c1ncnn1-c1ncc(C#N)s1 [I-51] | – | 90 | 100 | 100 | 100 | –
C[C@H](NC(=O)c1cc(OC(F)F)cc(S(C)(=O)=O)c1)c1ncnn1-c1ncc(C#N)s1 [I-54, N-{(1S)-1-[1-(5-cyano-1,3-thiazol-2-yl)-1H-1,2,4-triazol-5-yl]ethyl}-3-(difluoromethoxy)-5-(methylsulfonyl)benzamide] | – | – | 100 | 100 | – | –
Cc1nc([C@H](C)NC(=O)c2cc(Cl)nc(C(F)(F)F)c2)n(-c2ncc(C(=O)N(C)C)s2)n1 [I-77] | 100 | – | 100 | – | – | 100
Cc1nc([C@H](C)NC(=O)c2cc(Cl)nc(C(F)(F)F)c2)n(-c2ncc(C(=O)N(C)CC#N)s2)n1 [I-80] | 100 | – | 100 | – | – | 100
C[C@H](NC(=O)c1cc(Cl)cc(C(F)(F)Br)c1)c1ncnn1-c1ncc(C#N)s1 [I-86] | 100 | 100 | 100 | – | – | –
C[C@H](NC(=O)c1cc(C2CC2)cc(C(C)(F)F)c1)c1ncnn1-c1ncc(C#N)s1 [I-95] | 100 | 100 | 100 | – | – | –
C[C@H](NC(=O)c1cc(OC(F)F)cc(OC(F)(F)F)c1)c1ncnn1-c1ncc(C#N)s1 [I-100] | 100 | 90 | 100 | 100 | 100 | –
C[C@H](NC(=O)c1cc(OC(F)(F)F)cc(S(=O)(=O)C2CC2)c1)c1nc(C2CC2)nn1-c1ncc(C#N)s1 [I-104] | 100 | – | 100 | 90 | – | –
CNC(=O)c1cnc(-n2ncnc2[C@H](C)NC(=O)c2cc(Br)cc(OC(F)(F)F)c2)s1 [I-111] | 100 | – | 100 | 100 | – | –
CNC(=O)c1cnc(-n2ncnc2[C@H](C)NC(=O)c2cc(OC(F)F)cc(OC(F)F)c2)s1 [I-112] | 100 | 100 | 100 | 100 | 100 | –
CNC(=O)c1cnc(-n2ncnc2[C@H](C)NC(=O)c2cc(Cl)cc(S(=O)(=O)C(F)F)c2)s1 [I-114] | 100 | 90 | 100 | 100 | 100 | –
C[C@H](NC(=O)c1cc(Br)cc(OC(F)F)c1)c1ncnn1-c1ncc(C(=O)N(C)C)s1 [I-115] | 100 | – | 100 | 90 | – | –
C[C@H](NC(=O)c1cc(Cl)cc(S(=O)(=O)C(F)F)c1)c1ncnn1-c1ncc(C(=O)N(C)C)s1 [I-121] | 100 | – | – | 100 | – | –
C[C@H](NC(=O)c1cc(C(F)F)cc(S(=O)(=O)C2CC2)c1)c1nc(C2CC2)nn1-c1ncc(C#N)s1 [I-123] | 100 | – | 100 | 100 | – | –
